Columns and labels:
[1] = Cmax in po dosed rat; type: ADME, organism-based; design: route oral; details: in vivo
Rattus norvegicus [2] = assay: Antiinflammatory activity in Brown Norway rat lung inflammation model assessed as total cell inhibition at 10 mg/kg, po for 3 days; type: functional; details: 72 h
Glucocorticoid receptor [3] = target: T1, Glucocorticoid receptor (Homo sapiens, UniProt P04150); assay: Transactivation activity at glucocorticoid receptor in human HepG2 cells assessed as induction of tyrosine aminotransferase; type: ADME, cell-based
T1 sequence (P04150 whole entry): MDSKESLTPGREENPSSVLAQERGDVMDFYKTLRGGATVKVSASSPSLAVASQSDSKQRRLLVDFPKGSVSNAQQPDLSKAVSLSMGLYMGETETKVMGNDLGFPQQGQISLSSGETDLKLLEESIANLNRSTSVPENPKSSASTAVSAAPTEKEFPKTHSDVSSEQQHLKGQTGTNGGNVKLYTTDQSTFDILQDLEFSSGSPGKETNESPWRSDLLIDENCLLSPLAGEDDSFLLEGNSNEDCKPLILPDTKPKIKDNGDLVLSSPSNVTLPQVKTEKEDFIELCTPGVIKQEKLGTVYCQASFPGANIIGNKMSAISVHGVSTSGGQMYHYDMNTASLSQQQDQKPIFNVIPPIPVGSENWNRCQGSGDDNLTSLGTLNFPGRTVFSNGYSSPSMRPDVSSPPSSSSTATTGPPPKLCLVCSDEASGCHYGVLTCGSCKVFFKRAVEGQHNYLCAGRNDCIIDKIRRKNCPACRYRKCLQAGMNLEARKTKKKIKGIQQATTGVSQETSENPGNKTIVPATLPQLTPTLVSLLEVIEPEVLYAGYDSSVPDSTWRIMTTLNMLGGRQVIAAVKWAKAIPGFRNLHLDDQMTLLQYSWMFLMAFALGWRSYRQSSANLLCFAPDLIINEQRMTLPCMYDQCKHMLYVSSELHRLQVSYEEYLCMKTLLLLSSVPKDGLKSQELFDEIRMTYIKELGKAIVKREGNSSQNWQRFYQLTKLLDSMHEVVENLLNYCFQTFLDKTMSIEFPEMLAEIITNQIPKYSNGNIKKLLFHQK

Glucocorticoid receptor [4] = target: T1, Glucocorticoid receptor; assay: Transactivation activity at human glucocorticoid receptor in cells co-expressing GRE by luciferase reporter gene assay relative to control; details: read-out: Efficacy
[5] = AUC in po dosed rat; type: ADME, organism-based; details: plasma
Rattus norvegicus [6] = assay: Transactivation activity in Brown Norway rat lung inflammation model assessed as thymolysis measuring decrease in thymus weight at 10 mg/kg, po for 3 days; type: organism-based; design: dose 10 mg/kg, route oral; scale not given: the % may be the effect or the level left; details: in vivo, 72 h
Glucocorticoid receptor [7] = target: T1, Glucocorticoid receptor; assay: Transrepression activity at glucocorticoid receptor in human H292 cells assessed as inhibition of TNF-induced IL8 production; type: cell-based
Glucocorticoid receptor [8] = target: T2, Glucocorticoid receptor (Rattus norvegicus, UniProt P06536); assay: Transactivation activity at glucocorticoid receptor in rat H4II-E cells assessed as induction of tyrosine aminotransferase; type: ADME, cell-based
T2 sequence (P06536 whole entry): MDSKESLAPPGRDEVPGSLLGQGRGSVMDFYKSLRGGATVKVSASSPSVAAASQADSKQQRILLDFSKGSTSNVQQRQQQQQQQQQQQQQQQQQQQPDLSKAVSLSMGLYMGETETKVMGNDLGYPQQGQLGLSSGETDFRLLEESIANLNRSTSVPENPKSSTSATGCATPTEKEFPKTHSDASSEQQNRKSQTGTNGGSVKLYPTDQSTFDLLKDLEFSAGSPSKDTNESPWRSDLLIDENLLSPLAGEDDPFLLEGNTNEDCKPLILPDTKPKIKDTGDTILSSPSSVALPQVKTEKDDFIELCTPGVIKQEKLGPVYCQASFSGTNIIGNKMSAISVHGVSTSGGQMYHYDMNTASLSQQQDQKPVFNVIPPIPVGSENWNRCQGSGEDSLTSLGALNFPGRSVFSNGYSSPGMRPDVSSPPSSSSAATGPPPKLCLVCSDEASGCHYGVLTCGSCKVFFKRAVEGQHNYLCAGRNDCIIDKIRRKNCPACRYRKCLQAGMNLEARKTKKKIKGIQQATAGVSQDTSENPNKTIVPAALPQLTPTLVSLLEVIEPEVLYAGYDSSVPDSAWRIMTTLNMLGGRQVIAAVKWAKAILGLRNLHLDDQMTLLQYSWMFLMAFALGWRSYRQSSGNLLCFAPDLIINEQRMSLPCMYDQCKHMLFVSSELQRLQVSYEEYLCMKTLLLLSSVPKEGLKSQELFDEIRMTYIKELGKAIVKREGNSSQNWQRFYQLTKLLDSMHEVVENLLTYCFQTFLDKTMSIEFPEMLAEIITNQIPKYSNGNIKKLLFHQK

Glucocorticoid receptor [9] = target: T1, Glucocorticoid receptor; assay: Inhibition of human glucocorticoid receptor
Glucocorticoid receptor [10] = target: T1, Glucocorticoid receptor; assay: Transactivation activity at human glucocorticoid receptor in cells co-expressing GRE by luciferase reporter gene assay; details: read-out: IC50 (the source's name)

SMILES | Emax (Glucocorticoid receptor [4]) [%] | IC50 (Glucocorticoid receptor [7]) [nM] | IC50 (Glucocorticoid receptor [9]) [nM] | Cmax [1] [ng/mL] | inhibition in vivo at 10 mg/kg (Rattus norvegicus [2]) [%] | IC50 (Glucocorticoid receptor [3]) [nM] | AUC [5] [ng·h/mL] | Activity (Rattus norvegicus [6]) [%] | IC50 (Glucocorticoid receptor [8]) [nM] | EC50 (Glucocorticoid receptor [10]) [nM]
C[C@]12Cc3cnn(-c4ccccc4)c3C=C1CC[C@@H]1[C@@H]2[C@@H](O)C[C@@]2(C)[C@H]1CC[C@]2(O)C(=O)CSc1nc2ncccc2o1 | 83 | 0.89 | – | 467 | 62 | 37.7 | 2030 | 67 | 33.8 | –
C[C@]12Cc3cnn(-c4ccc(F)cc4)c3C=C1CC[C@@H]1[C@@H]2[C@@H](O)C[C@@]2(C)[C@H]1CC[C@]2(O)C(=O)CSc1nc2ncccc2o1 | – | 0.32 | – | 348 | 48 | 38.6 | 1630 | 70 | 13.3 | –
Cc1nc(SCC(=O)[C@@]2(O)CC[C@H]3[C@@H]4CCC5=Cc6c(cnn6C6CCCCC6)C[C@]5(C)[C@H]4[C@@H](O)C[C@@]32C)sc1C | 88 | 2.8 | – | – | – | 168 | – | – | 135 | 31.8
C[C@]12C=CC(=O)C=C1CC[C@@H]1[C@@H]2[C@@H](O)C[C@@]2(C)[C@H]1CC[C@]2(O)C(=O)CO [PREDNISOLONE] | – | – | – | 682 | 56 | – | 1250 | 53 | – | –
Cn1c(SCC(=O)[C@@]2(O)CC[C@H]3[C@@H]4CCC5=Cc6c(cnn6-c6ccccc6)C[C@]5(C)[C@H]4[C@@H](O)C[C@@]32C)nc2ccccc21 | 64 | 4.7 | – | – | – | 66.7 | – | – | 78 | 19.1
C[C@]12Cc3cnn(-c4ccccc4)c3C=C1CC[C@@H]1[C@@H]2[C@@H](O)C[C@@]2(C)[C@H]1CC[C@]2(O)C(=O)CSc1ccc2ccccc2n1 | 69 | 14.8 | – | – | – | 60.1 | – | – | 82.3 | 101
C[C@]12Cc3cnn(-c4ccccc4)c3C=C1CC[C@@H]1[C@@H]2[C@@H](O)C[C@@]2(C)[C@H]1CC[C@]2(O)C(=O)CSc1ccccn1 | 102 | 1.5 | – | – | – | 596 | – | – | 225 | 8.4

Second part, led by results:

Emax (Glucocorticoid receptor [4]) [%] | IC50 (Glucocorticoid receptor [7]) [nM] | IC50 (Glucocorticoid receptor [9]) [nM] | SMILES | Cmax [1] [ng/mL] | inhibition in vivo at 10 mg/kg (Rattus norvegicus [2]) [%] | IC50 (Glucocorticoid receptor [3]) [nM] | AUC [5] [ng·h/mL] | Activity (Rattus norvegicus [6]) [%] | IC50 (Glucocorticoid receptor [8]) [nM] | EC50 (Glucocorticoid receptor [10]) [nM]
1 | 22.1 | – | C[C@]12CCC(=O)C=C1CC[C@@H]1[C@@H]2[C@@H](O)C[C@@]2(C)[C@H]1CC[C@]2(O)C(=O)CSc1cnc2ccccc2n1 | 255 | 39 | – | 274 | 0 | – | –
16 | 59.1 | 4.7 | C[C@]12CCC(=O)C=C1CC[C@@H]1[C@@H]2[C@@H](O)C[C@@]2(C)[C@H]1CC[C@]2(O)C(=O)CSc1nc2ncccc2s1 | – | – | – | – | – | – | –
0 | 89.3 | 6.6 | C[C@]12CCC(=O)C=C1CC[C@@H]1[C@@H]2[C@@H](O)C[C@@]2(C)[C@H]1CC[C@]2(O)C(=O)CSc1ccc2ccccc2n1 | – | – | – | – | – | – | –
86 | 3.43 | – | C=CCn1c(SCC(=O)[C@@]2(O)CC[C@H]3[C@@H]4CCC5=Cc6c(cnn6-c6ccccc6)C[C@]5(C)[C@H]4[C@@H](O)C[C@@]32C)nc2ccccc21 | – | – | 278 | – | – | 258 | 28.6
35 | 26.7 | 3.9 | C[C@]12CCC(=O)C=C1CC[C@@H]1[C@@H]2[C@@H](O)C[C@@]2(C)[C@H]1CC[C@]2(O)C(=O)CSc1nc2ccccc2o1 | – | – | – | – | – | – | –
14 | 23.8 | 14.9 | C[C@]12CCC(=O)C=C1CC[C@@H]1[C@@H]2[C@@H](O)C[C@@]2(C)[C@H]1CC[C@]2(O)C(=O)CSc1ccccn1 | – | – | – | – | – | – | –
57 | 21.9 | 4.3 | Cc1nc(SCC(=O)[C@@]2(O)CC[C@H]3[C@@H]4CCC5=CC(=O)CC[C@]5(C)[C@H]4[C@@H](O)C[C@@]32C)sc1C | – | – | – | – | – | – | –

— ChEMBL document CHEMBL2021850, “Steroidal C-21 heteroaryl thioethers. Part 3: pregn-4-eno-[3,2-c]pyrazole fused A ring modified steroids as selective glucocorticoid receptor modulators (dissociated steroids)” (Bioorg Med Chem Lett, 2012)
